According to the supplement of paper PMC10307832:

Legend:
Test in all cases: relative viability (nuclei count vs DMSO), 5 days (fraction); higher = more cells survive
[1] = compound: Cc1ccc(NC(=O)c2ccc(CN3CCN(C)CC3)cc2)cc1Nc1nccc(-c2cccnc2)n1 [Imatinib] + CC(C)C[C@H](NC(=O)[C@H](Cc1ccccc1)NC(=O)c1cnccn1)B(O)O [Bortezomib] (partner 0.002 µM)
In short: (§1)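 Relative viability divides the nuclei count in treated wells by that in vehicle wells. Lung cancer cell lines were seeded in 1536-well plates, dosed by pin tool the next day, and fixed and stained after 5 days in one step with final 0.05% Triton X-100, 1% formaldehyde and 1 ug/ml Hoechst. Dosing was a single drug or a fixed anchor-drug dose plus five library-drug doses (not always all listed) in √10 steps, and values are medians of duplicate plates imaged at 4×.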

[2] = compound: Cc1ccc(NC(=O)c2ccc(CN3CCN(C)CC3)cc2)cc1Nc1nccc(-c2cccnc2)n1 [Imatinib] + CS(=O)(=O)CCNCc1ccc(-c2ccc3ncnc(Nc4ccc(OCc5cccc(F)c5)c(Cl)c4)c3c2)o1 [Lapatinib] (partner 2 µM)
In short: as §1

[3] = compound: Cc1ccc(NC(=O)c2ccc(CN3CCN(C)CC3)cc2)cc1Nc1nccc(-c2cccnc2)n1 [Imatinib] + CS(=O)(=O)N1CCN(Cc2cc3nc(-c4cccc5[nH]ncc45)nc(N4CCOCC4)c3s2)CC1 [Pictilisib] (partner 1 µM)
In short: as §1

[4] = compound: Cc1ccc(NC(=O)c2ccc(CN3CCN(C)CC3)cc2)cc1Nc1nccc(-c2cccnc2)n1 [Imatinib] + C[C@@H](Oc1cc(-c2cnn(C3CCNCC3)c2)cnc1N)c1c(Cl)ccc(F)c1Cl [Crizotinib] (partner 1 µM)
In short: as §1

Cell Line | relative viability ([1]; first compound 0.02 µM) | relative viability ([1]; first compound 0.2 µM) | relative viability ([1]; first compound 2 µM) | relative viability ([2]; first compound 0.02 µM) | relative viability ([2]; first compound 0.6325 µM) | relative viability ([2]; first compound 2 µM) | relative viability ([3]; first compound 0.02 µM) | relative viability ([3]; first compound 0.2 µM) | relative viability ([3]; first compound 0.6325 µM) | relative viability ([3]; first compound 2 µM) | relative viability ([4]; first compound 0.2 µM) | relative viability ([4]; first compound 0.6325 µM) | relative viability ([4]; first compound 2 µM) | relative viability ([1]; first compound 0.6325 µM) | relative viability ([2]; first compound 0.2 µM) | relative viability ([4]; first compound 0.02 µM) | relative viability ([2]; first compound 0.06325 µM) | relative viability ([1]; first compound 0.06325 µM) | relative viability ([3]; first compound 0.06325 µM) | relative viability ([4]; first compound 0.06325 µM)
201T | 1.08 | 1.13 | 1.06 | 0.993 | 0.989 | 0.989 | 0.711 | 0.664 | 0.729 | 0.679 | 1.09 | 0.993 | 1.02 | – | – | – | – | – | – | –
A-427 | 1.11 | 1.11 | 0.853 | – | 1.12 | 0.952 | 0.749 | 0.692 | 0.739 | 0.663 | 0.993 | 0.755 | – | 1.05 | 1.05 | 0.981 | – | – | – | –
ABC-1 | 0.311 | 0.282 | 0.348 | 1.25 | 0.312 | 1.11 | 0.685 | 0.669 | 0.914 | 0.679 | 1.43 | 1.15 | 1.07 | 0.235 | 1.31 | 1.34 | 0.727 | – | – | –
BEN | 0.975 | 0.796 | 0.581 | – | 0.697 | 0.54 | 0.609 | 0.619 | 0.491 | 0.673 | 1 | 0.762 | 0.93 | 0.79 | 0.725 | 1.04 | 0.465 | 0.641 | 0.383 | 0.847
CAL-12T | 1.07 | 0.927 | 1.02 | 0.631 | 0.705 | 0.667 | 0.507 | 0.486 | 0.667 | 0.524 | 1.17 | 0.624 | 0.776 | 0.968 | 0.938 | 0.715 | 0.609 | 1.1 | 0.433 | 0.696
COR-L23 | 1.38 | 1.2 | 0.947 | 1.13 | 0.922 | 0.829 | 1.02 | 1.1 | 0.786 | – | 0.809 | 0.685 | 0.632 | 1.18 | 1.41 | 0.807 | 0.791 | 1.03 | 0.715 | 0.73
COR-L 105 | 1.08 | 0.73 | – | 0.398 | 0.368 | 0.385 | 0.37 | 0.508 | 0.406 | 0.385 | 0.791 | 0.827 | 0.726 | 0.636 | 0.351 | 0.793 | 0.361 | 0.871 | 0.372 | –
ChaGo-K-1 | 0.975 | 1.01 | – | – | – | – | 0.88 | 0.589 | – | – | 1.31 | 0.976 | 1.05 | 1.15 | – | 1.12 | – | 1.37 | 0.497 | 1.35
EBC-1 | 0.556 | 0.52 | 0.423 | 0.182 | 0.195 | 0.168 | 0.425 | 0.387 | 0.304 | 0.334 | 0.19 | 0.196 | 0.208 | 0.58 | 0.216 | 0.185 | 0.187 | 0.623 | 0.405 | 0.204
EKVX | 1.03 | 1.13 | 1.09 | 0.222 | 0.208 | 0.197 | 0.419 | 0.475 | 0.528 | 0.508 | 1.08 | 0.886 | – | 1.15 | 0.197 | 0.937 | 0.189 | 1.14 | 0.343 | 0.861
EMC-BAC-2 | 1.11 | 1.21 | 1.07 | 0.937 | 0.972 | 0.873 | 0.513 | 0.614 | 0.536 | 0.582 | 0.872 | 0.685 | 0.707 | 1.16 | 0.833 | 0.825 | 0.702 | 1.11 | 0.505 | 0.761
EPLC-272H | 0.98 | 1.15 | 1.06 | 0.779 | 1.17 | 0.835 | 0.301 | 0.402 | 0.344 | 0.286 | 1.16 | – | 1.03 | 1.06 | 0.97 | 0.973 | – | – | – | –
H3255 | 0.796 | 0.729 | 0.7 | 0.234 | 0.266 | 0.23 | 0.493 | 0.507 | 0.447 | 0.426 | 0.816 | 0.889 | 0.793 | 0.699 | 0.268 | 0.636 | – | – | 0.488 | –
HARA | 0.952 | 1.5 | 1.1 | 0.629 | 0.748 | 0.781 | 0.42 | 0.389 | 0.363 | 0.339 | 1.22 | 1.05 | 1.08 | 1.09 | 0.83 | 1.15 | 0.996 | 1.25 | 0.406 | 1.09
HCC-15 | 1.03 | 1.07 | 1.02 | – | 0.901 | 0.839 | 0.719 | 0.777 | 0.809 | 0.698 | 0.9 | 0.792 | 0.817 | 1.13 | 1 | 0.683 | 0.582 | 0.93 | 0.324 | 0.779
